The values below come from patent US9714245B2, “Carboline compounds usable in the treatment of neurodegenerative diseases” (ALZPROTECT, priority 2013, dated 2017).

Each structure is given as a SMILES string.

For data set [1], the system named is AICD. Briefly: Quantification of AICD by Western blot in SY5Y-APPWT cells. In kind it is cell-based, Human. Particulars: compared to a control with a value of 100. The method, then:
Quantifications of APP-CTFs and AICD
After treatment, SY5Y-APP^WT cells were scrapped and lysed in 1× Lysis Buffer (250 mM NaCl, 50 mM Tris, pH 8.8, 5 mM EDTA, 2.5% Triton X-100, 1% Deoxycholate, 0.1% SDS). For the Western blotting, an equal amount of total proteins (20 μg/lane) was loaded on a 16.5% Tris-Tricine or 8-16% Tris-Glycine polyacrylamide gel.
SDS-polyacrylamide gel electrophoresis (PAGE) was performed using the Criterion™ Tris-Tricine-precast or Bis-Tris-precast criterion gels (Bio-Rad Bioresearch division). Proteins were transferred to a […] nitrocellulose membrane (Hybond, Amersham Biosciences) at 2.5 mA/cm2 per gel using the Criterion™ Blotter system (Amersham Biosciences), according to the manufacturer's instructions. Proteins were reversibly stained with Ponceau Red in order to check the quality of the transfer of protein. The membranes were blocked in 25 mM Tris-HCl pH 8.0, 150 mM NaCl, 0.1% Tween-20 (v/v) and 5% (w/v) of skimmed milk for 30 min. Membranes were incubated overnight at 4° C. with appropriate dilution of the primary antibodies, and were incubated for 1 h at room temperature with secondary antibody. […] Quantifications were calculated with Image J software (NIH) and the data were collected using Excel Software (Microsoft). The loading variations between Western blot lanes were normalized according to the tubulin signal. Quantification of CTFα and AICD were compared to control conditions (considered as 100 in arbitrary units) and are presented for two concentrations of the drug: 1 and 10 μM.
Background: Immunoblotting shows a protein as a band on a membrane.

The nature of data set [2]: Cytotoxicity evaluation (MTS assay). It counts as cell-based, Human. Particulars: human, SY5Y-APPWT neuroblastoma cells (expressing APP); SY5Y-APPWT cells, 24 h treatment, MTS. The method, then:
(§1) Human neuroblastoma cell line SY5Y-APP^WT was used to assess the cytotoxic effects of each compound. SY5Y-APP^WT cells were seeded at 20000 cells/well onto 96-well plates and were cultured in Dulbecco's modified Eagle medium (DMEM, Invitrogen) supplemented with 10% fetal calf serum (PAA), 2 mM L-glutamine (Invitrogen), 1 mM non-essential amino acids (Invitrogen), 50 units/ml penicillin/streptomycin (Invitrogen), and 200 μg G418=geneticin (Invitrogen) (selection for cells expressing APP) in a 5% CO2 humidified incubator at 37° C. After 24 h, the cells were washed and incubated with the compound at 0.1; 0.3; 1; 3; 10; 30 and 100 μM or with DMSO as control diluted in the same culture medium at 37° C. in 5% CO2. After 24 h of treatment, cytotoxicity was determined by using colorimetric MTS assay (CellTiter 96® Aqueous One Solution Cell Proliferation Assay-MTS Promega) according to the protocol of the manufacturer. Absorbance was read at 490 nm and results were expressed as % from control condition considered as 100%.
(In general: Tetrazolium assays rely on reduction of a dye to a coloured formazan, in cell work by metabolically active cells.)

The test system of data set [3] is SY5Y-APPWT cells. Kind of data set: Cytotoxicity evaluation (MTS assay). It counts as cell-based, Human. Particulars: comparative statement. The method, then: as §1
Data set [4] deals with sAPPα. Kind of data set: Soluble APPα quantification (ELISA). In kind it is cell-based, Human. Particulars: 24 h, control considered as 100. The method, then: Soluble APPα Quantification
Human neuroblastoma cell line SKNSH-SYSY APP′ was cultured in Dulbecco's modified Eagle medium (Invitrogen) supplemented with 10% fetal calf serum (PAA), 2 mM L-glutamine (Invitrogen), 1 mM non-essential amino acids (Invitrogen), 50 units/ml penicillin/streptomycin (Invitrogen), and 200 μg G418=geneticin (Invitrogen) (selection for cell expressing APP) in a 5% CO2 humidified incubator at 37° C. Cells were counted and seed at 400000 cells/well into a 12-wells plate for 24 h. The day after, cells were treated with 700 μL/well of drug at 0.3; 1; 3 and 10 μM and incubated for 24 h in a 5% CO2 incubator at 37° C. After treatment, culture medium samples were collected and stored at −80° C. until analysis. Samples corresponding to the 1 and 10 μM treatment were centrifuged 1500 rpm for 5 min at 4° C. sAPPα quantification by ELISA was done with Human sAPPα Assay Kit-IBL (Cat#27734) in accordance with manufacturer's protocol. Samples were diluted at 1:150 in the diluent buffer provided in the kit. Each sample was loaded in duplicate onto the 96 well-plate. Results are expressed in ng/ml and then compared to control conditions (considered as 100 in arbitrary units) and are presented for two concentrations of the drug: 1 and 10 μM.

The nature of data set [5]: Metabolic stability (method not described). Particulars: comparative statement.
Data set [6] relates to secreted Aβ1-42. Briefly: Aβ1-42 secretion by APP-transfected neuroblastoma cells (ELISA). It counts as cell-based. Particulars: Homo sapiens, Neuroblastoma cell; SKNSH-SYSY APPWT cells; concentration decreasing secreted Aβ1-42 to 50% of basal amount. The method, then: (§2) Cell Cultures and Transfections to Test Activity on Aβ1-40 and Aβ1-42 Secretion
(§3) Human neuroblastoma cell line SKNSH-SYSY (ATCC® Catalog No. CRL-2266™), HEK (ATCC® CRL-1573™) and COS-1 (ATCC® CRL-1650™) cells were maintained in Dulbecco's modified Eagle medium (DMEM, GIBCO BRL) supplemented with 10% fetal calf serum, 2 mM L-glutamine, 1 mM non-essential amino acids, 50 units/ml penicillin/streptomycin (Invitrogen, France) in a 5% CO2 humidified incubator at 37° C. APP695 cDNA was subcloned into eukaryotic expression vector pcDNA3 (Invitrogen), allowing for a G418 (Invitrogen) selection of clones. This APP cDNA coding for the 695 amino acid long isoform was transfected into SKNSH-SYSY cells using the ethyleneimine polymer ExGen 500 (Euromedex) according to the manufacturer's instructions. The cells expressing APP (SKNSH-SYSY APP^WT) were selected by the addition of 200 μg/ml G418 in the cell medium. To quantify AR which released in the cell culture medium, the collected medium was spun at 200×g to eliminate the cell debris. The concentrations of secreted Aâ1-40 and Aβ1-42 were determined using the Human Aβ (1-40) Assay Kit (IBL) or the INNOTEST™ beta-Amyloid (1-42) ELISA Kit (Innogenetics), according to manufacturer's instructions. The results were expressed as IC50, i.e. the concentration able to decrease to 50% the basal amount of secreted Aβ peptide 1-40 and 1-42.
Background: In an ELISA, binding on a coated surface is turned into a signal by an enzyme label.

The subject of data set [7] is secreted Aβ1-40. Briefly: Aβ1-40 secretion by APP-transfected neuroblastoma cells (ELISA). In kind it is cell-based. Particulars: Homo sapiens, Neuroblastoma cell; SKNSH-SYSY APPWT cells; concentration decreasing secreted Aβ1-40 to 50% of basal amount. The method, then: as §2, §3
Data set [8] relates to CTFα. Briefly: In vivo chronic treatment, CTFα in brain tissue. Further details: species or system C57Bl6 mice. Particulars: 12 weeks in drinking water, 3 mg/kg. Here is the method: In Vivo Chronic Treatment
Female C57Bl6 mice of 4 month-old were treated with either vehicle (control) or drug at 1 and 3 mg/kg (n=10 per group) for 12 weeks in drinking water. First of all, all mice were weighted and distributed in each cage in order to have approximately the same average of weight±SD per cage. Each concentration of product as well as vehicule was prepared in sterile bottles and the bottles were kept at room temperature protected from light. The drinking bottles were filled weekly and weighted. Volume consumed was calculated by weighting each bottle after each week and the remaining volume was discarded. After 12 weeks, mice were sacrificed and their troncal blood was collected and stored at 4° C. Brains were immediately removed to dissect the Frontal Cortex, the Cortex around the Hippocampus and the Hippocampus. These areas were stored at −80° C. until use. Blood was then centrifuged at 2100×g for 5 min. Resulting plasma was used to quantify the circulating drug and brain tissues were used for biochemical determinations (PFC: prefrontal cortex and HIP: hippocampus).

A word on the CC50: it is the concentration giving 50% cytotoxicity. The low end stands for greater toxicity to the cells, the high end for lower toxicity to the cells. By IC50 is commonly meant the point on the concentration scale where inhibition reaches its midpoint.

As for `Fc1ccc2[nH]c3c(c2c1)CN(CCCN1CCN(CCCN2CCCC2)CC1)CC3` [Compound 3.1f, 8-Fluoro-2-{3-[4-(3-(pyrrolidin-1-yl)propyl)piperazin-1-yl]propyl}-2,3,4,5-tetrahydro-1H-pyrido[4,3-b]indole], the “AICD (10 μM)” value in data set [1] is listed as 1011 arbitrary units. The molecule also registered a CC50 at 24 h in data set [2] above 100 µM. Moreover, the “toxicity (in words)” value in data set [3] is on record as “less toxic”. The “sAPPα (10 μM)” value in data set [4] came to 100 arbitrary units. Also, the “metabolic stability (in words)” value in data set [5] is “metabolically more stable”. In addition, the figures for the IC50 in data set [6] and in data set [7] were 1 µM and 3 µM, respectively. The “increase of CTFα in hippocampus (HIP)” value in data set [8] was determined as 25%. For the same molecule, the “increase of CTFα in prefrontal cortex (PFC)” value in data set [8] worked out at 20%.
